pIC50: −log10 of the molar value.
Tests used:
GABA receptor = conditions: stereoisomers of bicuculline; Tallman et al., 1978, Nature, 274: 383-85; cited from earlier work
[1] = biological target: GABAa receptor (benzodiazepine receptor); assay: GABAa receptor binding assay ([3H]-Flumazenil (RO15-1788) displacement, rat cortical tissue); conditions: rat cortical tissue homogenate; 0.5 nM 3H-RO15-1788; 30 min at 4° C., pH 7.4; nonspecific: 1.0 mM diazepam
Description: The pharmaceutical utility of compounds of this invention are indicated by the following assay for GABAa receptor activity.
Assays are carried out as described in Thomas and Tallman (J. Bio. Chem. 156: 9838-9842, J. Neurosci. 3:433-440, 1983). Rat cortical tissue is dissected and homogenized in 25 volumes (w/v) of 0.05M Tris HCl buffer (pH 7.4 at 4° C.). The tissue homogenate is centrifuged in the cold (4°) at 20,000×g for 20'. The supernatant is decanted and the pellet is rehomogenized in the same volume of buffer and again centrifuged at 20,000×g. The supernatant is decanted and the pellet is frozen at -20° C. overnight. The pellet is then thawed and rehomogenized in 25 volume (original wt/vol) of buffer and the procedure i carried out twice. The pellet is finally resuspended in 50 volumes (w/vol of 0.05M Tris HCl buffer (pH 7.4 at […]).
Incubations contain […] of tissue homogenate, […] of radioligand 0.5 nM (^3 H-RO15-1788 [^3 H-Flumazenil] specific activity 80 Ci/mmol), drug or blocker and buffer to a total volume of […]. Incubations are carried for 30 min at 4° C. then are rapidly filtered through GFB filters to separate free and bound ligand. Filters are washed twice and fresh 0.05M Tris HCl buffer (pH 7.4 at 4° C.) and counted in a liquid scintillation counter. 1.0 mM diazepam is added to some tubes to determine nonspecific binding. Data are collected in triplicate determinations, averaged and % inhibition of total specific binding is calculated. Total Specific Binding=Total-Nonspecific. In some cases, the amounts of unlabeled drugs is varied and total displacement curves of binding are carried out. Data are converted to a form for the calculation of IC50 and Hill Coefficient (nH).

| Structure (SMILES) | Block of enhancement of benzodiazepine binding by GABA agonists (GABA receptor) | pIC50 [1] |
| --- | --- | --- |
| CN1CCc2cc3c(cc2C1C1OC(=O)c2c1ccc1c2OCO1)OCO3 (single isomer, unassigned; (+)) [(+) bicuculline] | blocked | – |
| CN1CCc2cc3c(cc2C1C1OC(=O)c2c1ccc1c2OCO1)OCO3 (single isomer, unassigned; (-)) [(-) bicuculline] | much less active | – |
| O=c1c2c[nH]c3cccnc3n-2c(=O)n1-c1ccccc1 [Compound 1, 2-Phenyl-imidazo[1,5,a]pyrido[3,2-e]pyrazine-1,3(2H,5H)-dione] | – | 8.00 |
| COc1ccc(-n2c(=O)c3c[nH]c4cccnc4n-3c2=O)cc1 [Compound 5, 2-(4-Methoxyphenyl)-imidazo[1,5,a]pyrido[3,2-e]pyrazine-2,3(2H,5H)-dione] | – | 8.05 |
| CCOc1ccc(-n2c(=O)c3c[nH]c4cccnc4n-3c2=O)cc1 [Compound 8, 2-(4-Ethoxyphenyl)-imidazo[1,5,a]pyrido[3,2-e]pyrazine-2,3(2H,5H)-dione] | – | 7.70 |
